Legend:
[1] = system: periodontal disease in patients; details: patients who did not respond to routine periodontal therapy; cited from earlier work
rheumatoid arthritis = details: in vivo; cited from earlier work
[2] = system: fetal rat bones (radii and ulnae) in organ culture; assay: PTH-induced bone resorption in organ culture (45calcium release); format: cell-based
Description: The technique used to assess bone resorption is based on monitoring the release of radioactive calcium, previously incorporated by embryonic bones in vivo, during organ culture. Pregnant Sprague-Dawley rats were injected subcutaneously with 200 μCi of ^45 calcium chloride on the 18th day of gestation. The following day, the animals were killed, the fetuses removed, and the radii and ulnae dissected under aseptic conditions. […] The bones were then randomly distributed and each bone, either a radius or ulna, was incubated in 0.5 ml of culture media alone or in a media containing parathyroid hormone (PTH: human synthetic 1-34 peptide, Beckman Instruments, Inc., Palo Alto, California) added in a final concentration of 1.0 μg/ml; the experimental bones were incubated in the PTH containing medium to which was added different concentrations (0.2-300 μg/ml) of the antibiotics to be tested. The bones were cultured for 5 days, with the media being changed after day 2, and the incubation terminated. The bones were decalcified in 0.2 ml of 5% trichloroacetic acid and the ^45 calcium content of the residual bones and of the culture media was measured as described previously. (Werner and Raisz, Endocrinology, 90, 752 (1972 ) and Gomes, et. al., Calc. Tiss. Res., 19, 285 (1976)). The ^45 calcium released into the media was calculated as a percentage of the total radioactive calcium measured in the bones.

[3] = molecular target: T1, rat PMNL collagenolytic activity (PMNL collagenase) (Rattus norvegicus, UniProt O88766); assay: Rat PMNL collagenolytic activity in vitro (14C-collagen gel lysis); format: biochemical; details: Table 2; PMNL extract (30 × 10^6 PMNLs per ml) + 20 ug/ml; control extract 39.0
T1 construct: An extract of PMNLs was prepared; from tissue; host or cells: extract of peritoneal exudate polymorphonuclear leucocytes of non-diabetic rats, elicited with glycogen
T1 sequence (O88766 102-466): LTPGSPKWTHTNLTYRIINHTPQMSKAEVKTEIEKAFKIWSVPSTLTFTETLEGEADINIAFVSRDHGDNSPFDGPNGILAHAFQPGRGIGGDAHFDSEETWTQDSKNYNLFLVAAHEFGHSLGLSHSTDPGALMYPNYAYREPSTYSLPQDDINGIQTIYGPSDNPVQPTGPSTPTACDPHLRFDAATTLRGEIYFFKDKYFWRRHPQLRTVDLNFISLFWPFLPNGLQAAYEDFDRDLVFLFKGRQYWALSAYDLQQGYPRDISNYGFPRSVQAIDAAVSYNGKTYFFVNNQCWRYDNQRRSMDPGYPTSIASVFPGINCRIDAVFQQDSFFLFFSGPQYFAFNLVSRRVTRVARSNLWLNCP
Description: To test the effect of physiologic levels of minocycline (the concentration in human serum, during a therapeutic regimen, is approximately 2 ug/ml; that in the gingival crevicular fluid is 4-5 times greater; Ciancio, et. al., 1980, J. Periodontol., 51, 531-534) on mammalian collagenolytic activity in vitro, peritonealexudate polymorphomuclear leucocytes (PMNLs) were collected from 15 mole (non-diabetic) rats 4 hours after I.P. injection of 0.15% glycogen. An extract of PMNLs was prepared, 250 μl aliquots of this extract were incubated with ^14 C-glycine labeled collagen fibrils for 14 hours at 35° C. (in the presence or absence of minocycline, or EDTA, or additional CaCl2), and collagenolytic activity was measured as described by Nicoll, et al., (Experientia., 37, 315-317).
The techniques used to measure the collagenolytic enzyme activity of gingival tissue in culture, and in polymorphonuclear leucocytes (PMNLs), are those described by Golub, et. al., (J. Dent. Res., 57, 520-525 (197)8) and Nicoll, et. al., (Experimentia, 37, 315-317, (1981)) with minor modifications.

[4] = system: periodontal disease in dogs; details: dogs on long-term therapy; cited from earlier work

CN(C)[C@@H]1C(=O)C(C(N)=O)=C(O)[C@@]2(O)C(=O)C3=C(O)c4c(O)cccc4[C@@](C)(O)[C@H]3C[C@@H]12 [tetracycline, Tetracycline]
clinical benefit of long-term use [1]: clinically beneficial
treatment of rheumatoid arthritis (rheumatoid arthritis): effective
^45 Calcium in Fetal Bone Released into Media (%) after 2 days incubation ([2]; Table 4, first column, PTH + 0.2 μg/ml): 58.4 ± 1.3%
^45 Calcium in Fetal Bone Released into Media (%) after 2 days incubation ([2]; Table 4, first column, PTH + 2.0 μg/ml): 59.9 ± 1.5%
^45 Calcium in Fetal Bone Released into Media (%) after 2 days incubation ([2]; Table 4, first column, PTH + 20 μg/ml): 45.0 ± 0.7%
^45 Calcium in Fetal Bone Released into Media (%) after 2 days incubation ([2]; Table 4, first column, PTH + 200 μg/ml): 14.4 ± 0.4%
^45 Calcium in Fetal Bone Released into Media (%) after 2 days incubation ([2]; Table 4, second column, PTH + 0.2 μg/ml): 93.0 ± 1.7%
^45 Calcium in Fetal Bone Released into Media (%) after 2 days incubation ([2]; Table 4, second column, PTH + 2.0 μg/ml): 97.2 ± 0.8%
^45 Calcium in Fetal Bone Released into Media (%) after 2 days incubation ([2]; Table 4, second column, PTH + 20 μg/ml): 69.4 ± 3.5%
^45 Calcium in Fetal Bone Released into Media (%) after 2 days incubation ([2]; Table 4, second column, PTH + 200 μg/ml): 19.8 ± 0.5%
effect on PTH-enhanced bone resorption, in words ([2]; concentrations 0.2-300 μg/ml): inhibited bone resorption in a dose responsive manner
Collagenolytic Activity: % ^14 C-collagen gel lyzed [3]: 2.0%
periodontal disease [4]: significant improvement

From patent publication US4666897A, “Inhibition of mammalian collagenolytic enzymes by tetracyclines” (Research Foundation of State University, priority 1983, dated 1987)
